Consider four compounds from article PMC11845477, “Exploring the principles behind antibiotics with limited resistance” (Nature Communications, 2025).

“And” between values parts separate entries of the source, which are not always exact repeats. Identical values can stand only once. Like-named read-outs stand apart in the source and are kept apart here. Where a SMILES comes first, the peptide text is derived from it. Bridges are numbered along the chain shown (N, C = ends). [ ]: non-standard residue; d: D form. The star is where a group is joined. X1 = NC[C@@H](CC(=O)*)c1cccc(Cl)c1; Dab = NCC[C@H](N)C(=O)O; Dap = NC[C@H](N)C(=O)O

For assay [1], the system named is P. aeruginosa. Type of assay: cell-based, Pseudomonas aeruginosa. The note with it: Pseudomonas aeruginosa, survival at 10xMIC for 4 hours, single replicates, (fig 9a source data). Here is the method:
(§1) We employed image analysis to quantify bacterial survival under fixed antibiotic concentrations (10xMIC for 4 hours) on E. coli, A. baumannii, K. pneumoniae, and P. aeruginosa. […] Survival rate was quantified by calculating the ratio of the viable cells after antibiotic treatment and the total initial viable cell count.
(§2) Fig. 9 Killing kinetics of the studied antibiotics. a Bacterial survival rate in response to toxic antibiotic exposure. […] The bars indicate the survival rate (log10) compared to the untreated initial viable cell count (see “Methods”). Data are presented as mean values of 5 biological replicates ± SEM. The antibiotic group differentiation is denoted by color. […] Survival was estimated by measuring cell viability (colony-forming units/ml) of 2 biologically independent strains following a 4-hour exposure to different concentrations of 16 antibiotics on E. coli ATCC25922 (for further details, see “Methods”). The antibiotic concentration that kills 99.9% of the E. coli population is indicated as a vertical dotted line (see Supplementary Data 5). Error bars represent standard error calculated from the colony counts by Poisson’s model. A Hill function was fitted to the dose-response data from two biological replicates, producing sigmoidal curves (Supplementary Data 5). The Hill coefficient reflects how steeply the survival rate decreases in response to increasing antibiotic concentration ([…]). […] X-axis label colors indicate mode of action groups. For detailed information on antibiotic and bacterial species, see Supplementary Data 1. Source data are provided as a Source Data file.
(§3) In this current study, the killing kinetics of each antibiotic was measured according to a previously established experimental protocol[62] with minor modifications. During this assay, the bacterial cultures were exposed to antibiotics in 96-well assay plates and their viability after 4 hours of exposure was quantified by two methods: i) microplating and colony counting or ii) fluorescent staining of cells and counting of the fluorescent units.
(§4) Specifically, these experiments were performed in the following steps: (1) Preparation of bacterial stocks. Single colonies from each strain were isolated and grown overnight in MHB medium at 37 °C, 160 rpm. In case of the fluorescently tagged E. coli strains, the medium was supplemented with 10 μg/mL chloramphenicol, to maintain the pZS2R plasmid. Overnight cultures were diluted 1:5000 and grown to an optical density at 600 nm (OD600) of 0.25. These cultures were concentrated by centrifugation and small aliquots of 50 μL containing ~2.2 × 10^9 cells were frozen in glycerol (stored at −80 °C). (2) Preparing assay plates with antibiotics. 96-well plates were filled with 235 μL MHB and supplemented with antibiotics using an automated digital dispenser (D300e, Tecan). In the case of SCH79797, we used minimal media. […] For testing the clearance efficacy of each antibiotic at a single lethal dose, the 10x of the MIC for each antibiotic-strain pair were prepared in at least three replicates. (3) Antibiotic exposure. During the dose response assay, frozen cultures of the E. coli strains expressing YFP and mCherry were thawed and mixed at a 1:1 ratio, diluted 1:1000 in 30 mL MHB and incubated for 45 min at 37 °C and 160 rpm. During the single-dose assay, the frozen cultures of experimental strains (E. coli, K. pneumoniae, A. baumannii) were also thawed and diluted 1:1000 in 30 mL MHB and incubated at 37 °C to reach an OD of 0.25 and 160 rpm. Following this incubation phase, these bacterial cultures were then aliquoted into the 96-well deep-well antibiotic plates (15 μL culture; total volume of 250 μL) at an inoculum density of about 10^7 CFU.

Assay [2] concerns P. aeruginosa ATCC BAA-3107 (SEN) and P. aeruginosa LESB58 (MDR). Description: Frequency-of-resistance (FoR) assay, relative MIC of mutants. Type of assay: cell-based, Pseudomonas aeruginosa. Here is the method:
The susceptibility of antibiotics to resistance development was evaluated in two strains of each bacterial species: a multidrug-resistant strain and an antibiotic-sensitive strain of Escherichia coli, Klebsiella pneumoniae, Acinetobacter baumannii, and Pseudomonas aeruginosa. To explore first-step resistance, we previously used a standard protocol for spontaneous frequency-of-resistance analysis (FoR assay) at multiple concentrations of each antibiotic[10],[28],[31]–[33]. […] For all other combinations, approximately 10^10 bacterial cells were exposed to one of each antibiotic on agar plates for two days at concentrations where the given strain is susceptible. We examined resistance levels by contrasting the minimum inhibitory concentration (MICs) of the mutated strains to the original wild-type bacterial strain (i.e., relative MIC).
To estimate the frequency of spontaneous mutations that confer resistance in a microbial population, we conducted a frequency of resistance (FoR) assay following established protocols[10],[31]–[33]. […] Prior to plating, bacteria were grown overnight in MHB medium at 37 °C and 250 RPM, then centrifuged and washed in MHB. All experiments were performed in triplicate, and plates were incubated at 37 °C for 48 hours. Total colony-forming units (CFUs) were determined by plating appropriate dilutions onto antibiotic-free MHB agar. Resistance frequencies were calculated by dividing the number of resistant colonies by the initial viable cell count. From the plates with the highest antibiotic concentration, ten colonies were selected for MIC determination and whole-genome sequencing.
A robotic liquid handling system was used to automatically prepare a 11 to 16-step serial dilution in 384-well microtiter plates (Greiner). A final concentration of 5 × 10^5 bacterial cells per mL were inoculated into each well containing 60 µL MHB medium. Bacterial cultures were incubated at 37 °C with continuous shaking (Infors shaker, 900 rpm with 3 mm throw) for 18 hours (2 replicates from each). Cell growth was monitored by measuring the optical density (OD600 values, using Biotek Synergy microplate reader). MIC was defined as the antibiotic concentration of complete growth inhibition (i.e., OD600 < 0.05). Relative MIC was calculated as follows:1 relativeMIC=MICevolved/MICancestor […]
Supplementary Figure 3. Resistance levels following the frequency of resistance assay across bacterial strains. The level of resistance was measured as the fold change in relative MIC between evolved and ancestral strains. Data are grouped by bacterial strain (A. baumannii (AB), E. coli (EC), K. pneumoniae (KP), and P. aeruginosa (PA)) and categorized as either multidrug-resistant (MDR) or sensitive (SEN). Each data point represents a laboratory evolved line, and boxplots show the median, first and third quartiles, with whiskers indicating the 5th and 95th percentiles. […]
analysis was performed using two-sided Dunn’s post-hoc test with Benjamini-Hochberg correction for multiple comparisons (**/ * indicates p < 0.01/ 0.05). For detailed information on antibiotic and bacterial species, see Supplementary Table 1. For mode of action groups, refer to Table 1. Source data are provided as a Source Data file.

Assay [3] relates to A. baumannii. Nature of the assay: Bacterial survival at 10xMIC for 4 hours. The class given is cell-based, Acinetobacter baumannii. The note with it: Acinetobacter baumannii, survival at 10xMIC for 4 hours, single replicates, (fig 9a source data). The protocol:
as §1, §2, §3, §4

[4] abbreviates: P. aeruginosa ATCC BAA 3107 (PA-SEN), evolved line 1.
The mark [5] stands for this setting: P. aeruginosa ATCC BAA 3107 (PA-SEN), evolved line 2.
The mark [6] stands for this setting: P. aeruginosa ATCC BAA 3107 (PA-SEN), evolved line 3.
[7] abbreviates: P. aeruginosa LESB 58 (PA-MDR), evolved line 1.
Setting [8] is: P. aeruginosa LESB 58 (PA-MDR), evolved line 1, evolved vs ancestor.
Where [9] appears, read: P. aeruginosa LESB 58 (PA-MDR), evolved line 2.
Where [10] appears, read: P. aeruginosa LESB 58 (PA-MDR), evolved line 2, evolved vs ancestor.
The mark [11] stands for this setting: P. aeruginosa LESB 58 (PA-MDR), evolved line 3.
Setting [12] is: P. aeruginosa LESB 58 (PA-MDR), evolved line 3, evolved vs ancestor.
[13] abbreviates: P. aeruginosa ATCC BAA 3107 (PA-SEN), evolved line 1, evolved vs ancestor.
The mark [14] stands for this setting: P. aeruginosa ATCC BAA 3107 (PA-SEN), evolved line 2, evolved vs ancestor.
The mark [15] stands for this setting: P. aeruginosa ATCC BAA 3107 (PA-SEN), evolved line 3, evolved vs ancestor.

`Nc1nc(-n2cc(C(=O)O)c(=O)c3cc(F)c(N4CC(O)C4)c(Cl)c32)c(F)cc1F` [Delafloxacin]: the “Survival rate (log10)” value in assay [1] (listed as DEL) was -0.244 log10 and -0.1736 log10 and -0.08683 log10 and -0.3488 log10 and -0.1122 log10; in assay [3] (listed as DEL), -1.416 log10 and -1.661 log10 and -1.352 log10 and -1.5252 log10 and -1.635 log10. The MIC of evolved line in assay [2] (setting [4]) is 2 mg/L; in assay [2] (setting [5]) it was 2 mg/L; in assay [2] (setting [6]), 2 mg/L; in assay [2] (setting [7]), 8 mg/L; in assay [2] (setting [9]), 8 mg/L; in assay [2] (setting [11]) it was 4 mg/L. Besides, the “Relative MIC” value worked out at 4 in assay [2] (setting [8]), 4 in assay [2] (setting [10]) and 2 in assay [2] (setting [12]).

As to `CN(C)[C@@H]1C(O)=C(C(N)=O)C(=O)[C@@]2(O)C(O)=C3C(=O)c4c(O)c(NC(=O)CN5CCCC5)cc(F)c4C[C@H]3C[C@@H]12` [Eravacycline], the “Survival rate (log10)” value in assay [1] (listed as ERA) was -0.509 log10 and -0.5518 log10 and -0.8039 log10 and -0.6612 log10 and -0.7582 log10; in assay [3] (listed as ERA) it was -1.499 log10 and -1.238 log10 and -1.644 log10 and -1.596 log10 and -1.425 log10. Also, the MIC of evolved line in assay [2] (setting [4]), in assay [2] (setting [5]) and in assay [2] (setting [6]) was 32 mg/L each time. Moreover, the “Relative MIC” value in assay [2] (setting [13]), in assay [2] (setting [14]) and in assay [2] (setting [15]) was 8 throughout.

`CNC(C)C1CCC(N)C(OC2C(N)CC(N)C(OC3OCC(C)(O)C(NC)C3O)C2O)O1` (centres unmarked) [Gentamicin]: the “Survival rate (log10)” value in assay [1] (listed as GEN) was -0.02375 log10 and -0.1205 log10 and -0.1516 log10 and -0.09697 log10 and -0.6642 log10; in assay [3] (listed as GEN), -1.432 log10 and -1.215 log10 and -1.434 log10 and -1.4437 log10 and -1.516 log10. Also, the MIC of evolved line in assay [2] (setting [4]), in assay [2] (setting [5]) and in assay [2] (setting [6]) was 8 mg/L throughout. The “Relative MIC” value in assay [2] (setting [13]), in assay [2] (setting [14]) and in assay [2] (setting [15]) was 8 throughout.

Consider `CC(C)C[C@@H]1NC(=O)[C@@H](Cc2ccccc2)NC(=O)[C@H](CCN)NC(=O)[C@@H](NC(=O)[C@H](CN)NC(=O)[C@@H](NC(=O)C[C@H](CN)c2cccc(Cl)c2)[C@@H](C)O)CCNC(=O)[C@H]([C@@H](C)O)NC(=O)[C@H](CCN)NC(=O)[C@H](CCN)NC1=O` [SPR206] (X1-T[Dap][Dab][Dab][dF]L[Dab][Dab]T; lactam 3-C (inferred); N-terminus assumed), for which the “Survival rate (log10)” value in assay [1] (listed as SPR) is -6 log10 and -2.301 log10 and -2.534 log10 and -2.682 log10; in assay [3] (listed as SPR) it was -1.951 log10 and -2.839 log10 and -3.084 log10 and -1.511 log10 and -2.915 log10. The “Relative MIC” value in assay [2] (FoR assay, Pseudomonas aeruginosa ATCC BAA 3107 (PA-SEN), evolved line 1) was 1; in assay [2] (FoR assay, Pseudomonas aeruginosa ATCC BAA 3107 (PA-SEN), evolved line 2) it was 1; in assay [2] (FoR assay, Pseudomonas aeruginosa ATCC BAA 3107 (PA-SEN), evolved line 3) it was 1; in assay [2] (setting [13]) it was 1; in assay [2] (setting [14]), 1; in assay [2] (setting [15]), 1. The figures for the “Relative MIC” value in assay [2] (setting [8]), in assay [2] (setting [10]) and in assay [2] (setting [12]) were 32, 16 and 16, respectively. Moreover, the MIC of evolved line worked out at 1 mg/L in assay [2] (setting [4]); 1 mg/L in assay [2] (setting [5]); 1 mg/L in assay [2] (setting [6]); 128 mg/L in assay [2] (setting [7]); 64 mg/L in assay [2] (setting [9]); 64 mg/L in assay [2] (setting [11]).
